Values after ≈ are worked out from the molar mass of the structure shown.
Legend:
[1] = test system: wild-type C57BL6/J mice; assay: Cerulein-induced chronic pancreatitis model; format: in vivo, mouse; settings: for inflammation and fibrosis: cerulein plus 40 μg/kg calcipotriol i.p. vs cerulein alone
Experimental: Tissues were embedded in O.C.T. and frozen sections were fixed in ice-cold methanol at −20° C. for 20 min. Sections were blocked in PBS+0.2% BSA+0.05% Triton X-100 (blocking solution) for 1 h at room temperature. Primary antibody dilutions in blocking solution were as follows: anti-phospho-STAT3(Tyr705), 1:100 (Cell Signaling Technology); anti-Collagen I, 1:500 (Abcam), anti-GFAP, 1:100 (Abcam); anti-CD45, 1:100 (BD Pharmingen). Primary antibody incubations were performed in a humidified chamber at 4° C. overnight. Sections were washed 3 times with PBS+0.05% Triton X-100, then incubated in secondary antibodies for 1 h at room temperature, protected from light. Secondary antibodies used included Alexa Fluor 594 goat anti-rabbit IgG, Alexa Fluor 488 goat anti-rabbit IgG, Alexa Fluor 594 goat anti-rat IgG, and Alexa Fluor 488 goat anti-mouse IgG (Molecular Probes) and were used at 1:250 in blocking solution. Sections were washed 3 times with PBS and mounted using Vectastain mounting medium with or without DAPI. Fluorescence was visualized on a Leica DM5000B fluorescent microscope and quantified using ImageJ. Chronic pancreatitis was induced in wild-type C57BL6/J mice beginning at 8 weeks of age. Ten animals per cohort received intraperitoneal injections of saline, 50 μg/kg cerulein, or cerulein plus 40 μg/kg calcipotriol. Cerulein injections were administered as 6 hourly injections 2 times per week for 12 weeks and analyzed 1 week after final cerulein injection, adapted from previous studies (Sah et al., 2013; Treiber et al., 2011; Yoo et al., 2005). Calcipotriol injections were administered 3 times per week for the duration of the chronic pancreatitis study. For acute pancreatitis studies, 8-week-old wild-type or Vdr−/− mice received 6 hourly intraperitoneal injections of 50 μg/kg cerulein on days 1, 3, and 5, with or without single daily injections of 40 μg/kg calcipotriol. Mice were sacrificed on day 6. At necropsy, pancreata were harvested and digested for PSC isolation as described above, or prepared for histological analysis as described herein. Histological sections were cut from formalin-fixed tissues at 7 μm thickness Sirius Red/Fast Green staining (Chondrex) was performed per manufacturer's instructions. Images were obtained and quantification of Sirius Red-positive area performed using Nuance 3.0.1.2 software. Six independent fields were captured per sample.

[2] = test system: primary human CAPSCs; assay: ACTA2 expression by qRT-PCR; format: cell-based; settings: 100 nM Cal, 48 h; samples responding / samples tested
Experimental: Total RNA was purified following Trizol extraction according to the manufacturer's instructions. cDNA synthesis was carried out using iScript reagent (Bio-Rad), and qRT-PCR performed using SsoAdvanced SYBR Green reagent on the CFX384 detection system (Bio-Rad). Relative expression values were determined using the standard curve method. Primer sequences can be found in Table 2.

[3] = test system: KPC mice with pancreatic ductal adenocarcinoma; assay: KPC mouse PDA study; format: in vivo; settings: Cal alone
Experimental: KPC mice with pancreatic ductal adenocarcinoma were used based on tumor size, as described previously (Olive et al., 2009). In this study, enrollment was restricted to mice with tumors of a mean diameter between 6 and 9 mm, as determined by high resolution ultrasound imaging. Suitable mice were assigned to a treatment group: gemcitabine; calcipotriol; or gemcitabine and calcipotriol combination. Gemcitabine was administered as a saline solution at 100 mg/kg by intraperitoneal injection, once every three days; when appropriate, a final dose was given two hours prior to euthanasia. Calcipotriol was administered as a saline solution daily at 60 μg/kg by intraperitoneal injection. […]
LC-MS/MS was performed as described by Bapiro et al. (Bapiro et al., 2011). […] Analytes were separated using a gradient of acetonitrile in 10 mM ammonium acetate, pH 10 and detected using a Thermo LTQ-XL mass spectrometer (Thermo Fisher Scientific). Drugs recoveries were normalized using the internal standards and quantified using calibration standards generated from untreated tissue homogenates as described (Bapiro et al., 2011).
Tumors harvested from treated KPC mice were immediately fixed in buffered formalin. […] CD31-positive area was quantified in each section using Nuance software. […] Total tumor cells were quantified per field, as well as total and percent CC3-positive tumor cells per field. […]

[4] = cited from earlier work

C=C1/C(=C\C=C2/CCC[C@]3(C)[C@@H]([C@H](C)/C=C/[C@@H](O)C4CC4)CC[C@@H]23)C[C@@H](O)C[C@@H]1O [Cal, 1α,24-(OH)2-24-cyclopropyl-D3]
inflammation and fibrosis [1]: attenuated inflammation and fibrosis | inflammation and fibrosis ([1]; listed as calcipotriol): markedly reduced inflammation and fibrosis | Acta2 expression in isolated PSCs ([1]; cerulein+Cal 12 weeks): trended downwards | phospho-Stat3 induction ([1]; cerulein+Cal 12 weeks): reduced induction of phospho-Stat3 | expression of activation and cancer signature genes in isolated PSCs ([1]; cerulein+Cal 12 weeks vs controls): decreased | decreased expression of αSMA (ACTA2), patient samples [2]: 24/27 | efficacy as a single agent [3]: no measurable beneficial effects | solubility in DMSO ([4]; DMSO): 100 mM (≈ 41.3 mg/mL) | solubility in ethanol ([4]; ethanol): 100 mM (≈ 41.3 mg/mL)
